Test results from paper PMC314469, “Protein Interaction Networks by Proteome Peptide Scanning” (PLoS Biology, 2004).

The sequences below were run on Myo5 SH3 domain (assay: SPOT analysis of cellulose-bound peptides (WISE), Myo5 SH3 domain (Dataset S4)). Conditions: SPOT analysis of cellulose-bound 14-mer yeast proteome peptides, Myo5 SH3 domain; normalized value; mean where the peptide was synthesized more than once.
Type: binding, Saccharomyces cerevisiae

| Sequence | The normalized value in BLU units |
| --- | --- |
| ALRKFGYPFSPNDP | 166.2 BLU |
| SPNDHSDPSCPCNR | 76.1 BLU |
| YEVTFDGPNDPLHP | 110.9 BLU |
| FFYRRDIPDVPITT | 138.0 BLU |
| PKKSRVLPPLPFPL | 3587.4 BLU |
| ALGIFFAPESPWWL | 229.3 BLU |
| EFDEKLPPKKPAGP | 87.3 BLU |
| APPALSAPSIPPVP | 10786.3 BLU |
| GWSTYIPPFNPLEI | 113.7 BLU |
| FEESMNNPLPPLPP | 168.9 BLU |
| VPPNFNAPPNPMAF | 1568.9 BLU |
| RAAGMDVPIIPGIM | 98.2 BLU |
| KIVRRDYPSTPVIV | 366.1 BLU |
| RLFDLVKPKNPKFS | 441.1 BLU |
| DLDWRKIPFLPKEI | 250.1 BLU |
| HPIHLQPPVPPVYK | 317.7 BLU |
| QEISLIDPSTPDKA | 155.1 BLU |
| EGTTKVDPIIPVPE | 180.1 BLU |
| LALLMTDPDAPSRT | 177.5 BLU |
| YENCHSLPLDPQSP | 121.9 BLU |
| IFQSLLHPELPIII | 239.9 BLU |
| VLKNLPTPGEPFNF | 148.4 BLU |
| DLIHLDCPQQPNGY | 219.5 BLU |

| Sequence | The normalized value in BLU units |
| --- | --- |
| TYLTRPLPSTPNED | 101.0 BLU |
| GLRELFLPGMPGLM | 159.7 BLU |
| APQPHLLPWLPPTD | 117.4 BLU |
| LDSMKNLPLNPSKK | 268.3 BLU |
| KPSGYYGPNSPLKL | 159.2 BLU |
| MTVPRNRPMAPFGT | 595.6 BLU |
| LSGTRLVPNCPLLW | 431.8 BLU |
| TEDGFVIPALPAAV | 290.4 BLU |
| KKNKKKVPLNPLAK | 522.6 BLU |
| PEHLFNNPQNPMDF | 157.1 BLU |
| TIEARVHPEPPNKP | 374.9 BLU |
| DPNQLSTPPTPKSA | 166.4 BLU |
| MLNEHGVPVVPSRE | 199.3 BLU |
| FESFLRPPSTPDLP | 70.2 BLU |
| VFSCLRDPVIPIKL | 132.4 BLU |
| YLTEFSRPIPPTPS | 168.8 BLU |
| KNIIKYVPWGPPLE | 164.4 BLU |
| PFGTFTLPADPEYK | 171.6 BLU |
| IEITHSEPAIPYRE | 114.3 BLU |
| SELYYEGPETPTPS | 50.5 BLU |
| TQSGRMGPSEPKHR | 455.6 BLU |
| YPAKLRIPETPVKK | 219.9 BLU |

Same assay, conditions: SPOT analysis of cellulose-bound peptides probed with Myo5 SH3 domain; normalized value

| Sequence | The normalized value in BLU units (SPOT analysis, Myo5 SH3) |
| --- | --- |
| TFSIYSIPSKPGEC | 226.8 BLU |
| YEKALHFPAGPKST | 147.4 BLU |
| NASAMPAPYMPYYY | 225.5 BLU |
| VFSLMNCPAYPDVQ | 153.4 BLU |
| VAVPFTLPVIPYDL | 240.5 BLU |
| WLSKLVLPPPPVSI | 4130.6 BLU |
| ILQELSLPSRPVMP | 51.9 BLU |
| PEVKHFCPSTPIML | 93.7 BLU |
| FAYSLGLPGAPKIK | 75.8 BLU |
| NFLKHYLPSSPGDI | 172.3 BLU |
| YLNNLAEPLIPLSL | 222.0 BLU |
| KPPSYPSPVQPPQS | 16459.5 BLU |
| APAPPPPPQMPAT | 7749 BLU |
| AELFLRRPIFPGRD | 215.9 BLU |
| PFYTMPDPANPKYS | 145.1 BLU |
| GETRWRIPYLPLDP | 118.4 BLU |

| Sequence | The normalized value in BLU units (SPOT analysis, Myo5 SH3) |
| --- | --- |
| RLWLYAAPKRPKTF | 845.1 BLU |
| REVDLPIPAQPGPP | 114.0 BLU |
| GAPPLPVPNGPAVG | 222.0 BLU |
| AAVRLDQPILPQND | 105.1 BLU |
| VPNRWATPLDPSIL | 125.7 BLU |
| FESTLPIPTYPREG | 122.0 BLU |
| SENRLRTPLKPLVN | 272.3 BLU |
| TLEWLLTPYTPGDD | 163.5 BLU |
| DPNAYMQPQVPVQM | 160.5 BLU |
| ALNNWILPSTPHIQ | 169.3 BLU |
| AEVYYGPPTDPRKQ | 83.5 BLU |
| SFDYLFHPFVPCTI | 23.1 BLU |
| GLDALNIPHKPKQL | 167.1 BLU |
| ILVAYGLPVSPDEK | 166.6 BLU |
| MASGLLPPIQPGFD | 223.0 BLU |
| WLLPYSLPMHPGRW | 706.0 BLU |

Same assay, conditions: SPOT analysis of membrane-bound peptides, Myo5 SH3 domain; normalized value (see methods)

| Sequence | The normalized value in BLU units |
| --- | --- |
| TKRQRGEPSEPQQD | 27.7 BLU |
| EKVFRGDPEHPAIS | 90.0 BLU |
| LAAHKTKPSIPPKK | 248.8 BLU |
| PPRFKNFPTLPSKI | 634.0 BLU |
| LNRKKVTPQLPKVT | 499.8 BLU |
| TILERLTPLVPNNL | 249.4 BLU |
| GIKVKRIPYSPKSI | 390.6 BLU |
| PNPLKKAPIPPLAY | 137.2 BLU |
| YEGPRGAPGMPEML | 166.5 BLU |
| PSSHKRKPVIPWDA | 289.2 BLU |
| IKYFKKFPKDPLAM | 237.4 BLU |
| QELPRAIPVMPFVD | 118.1 BLU |
| ADDLKYIPPIPQDF | 86.7 BLU |
| DIPLKQVPENPMPT | 62.9 BLU |
| IFVTRYLPYFPIMY | 156.7 BLU |
| DPSDKSLPQQPFHK | 191.9 BLU |
| HLLGKEGPSAPNPS | 124.5 BLU |
| YGSEKGSPAGPSAV | 50.3 BLU |

| Sequence | The normalized value in BLU units |
| --- | --- |
| EGRCRLFPHCPLGR | 141.3 BLU |
| LVGMRSFPLYPSGL | 385.7 BLU |
| INNNKMRPHLPPLS | 1004.0 BLU |
| PHFAKHSPDSPRTS | 236.2 BLU |
| WLDEKRIPSTPVDY | 240.0 BLU |
| VNTPRSVPNSPNDG | 65.0 BLU |
| LTLTKWDPSKPISL | 231.0 BLU |
| RLPSKTDPLDPHIK | 129.4 BLU |
| TGYPRYFPQPPVQR | 5858.1 BLU |
| DIPRRYIPITPADL | 33.0 BLU |
| KVIRKGSPKSPAMV | 495.7 BLU |
| ILERKNIPRQPAIR | 602.9 BLU |
| LSKVRGRPMYPRPA | 752.4 BLU |
| RMQQKNSPAFPTHS | 1283.9 BLU |
| SLLAKYQPSLPLVE | 162.4 BLU |
| KDEVKLHPPEPKDL | 163.7 BLU |
| AGMAKTKPDVPLSY | 157.7 BLU |

Same assay, conditions: SPOT analysis of membrane-synthesized peptides probed with Myo5 SH3 domain; normalized value

| Sequence | The normalized value in BLU units (SPOT analysis, Myo5 SH3) |
| --- | --- |
| TARNKKSPGGPRQR | 593.2 BLU |
| AGLYKLSPLYPFDV | 133.2 BLU |
| DRLSKIKPFLPQSI | 225.5 BLU |
| ETTTRETPLPPIPA | 178.3 BLU |
| QRLDRDKPHEPNGY | 217.9 BLU |
| VVAVKIIPKKPWNA | 114.7 BLU |
| LIDFKDYPDVPKVP | 153.6 BLU |
| NELIKQGPKRPTSA | 175.5 BLU |
| IGSPRHAPSRPDSI | 193.4 BLU |
| LAYERPLPDLPSTI | 131.9 BLU |
| ENENKKLPPAPTVF | 67.7 BLU |
| LGSEKSCPLAPAVA | 121.9 BLU |
| LNTMKKRPAPPSLP | 22346.5 BLU |
| KKHDKLYPKYPSVK | 339.6 BLU |
| DFRGRAYPLSPHFN | 785.0 BLU |
| EFIVKTIPVPPRDF | 115.3 BLU |

| Sequence | The normalized value in BLU units (SPOT analysis, Myo5 SH3) |
| --- | --- |
| AEIVKLTPKNPFYK | 102.1 BLU |
| LPLSRVQPVQPSQT | 122.5 BLU |
| INTFKTLPTKPEMQ | 167.1 BLU |
| TLKKKKTPKKPIAA | 535.4 BLU |
| TTNSRLCPSSPSSS | 160.8 BLU |
| RGWQRFLPTGPIAH | 802.1 BLU |
| ILPPRIVPAIPKKA | 3670.9 BLU |
| YWGKKFEPERPFEF | 385.0 BLU |
| PKTGKPLPTQPSSS | 193.3 BLU |
| TTTIKNRPVPPPLP | 1868.9 BLU |
| LRISKPDPECPSKL | 246.3 BLU |
| GNNSRNIPPPPPPP | 10334.3 BLU |
| PDLNKRPPREPIEF | 192.4 BLU |
| GIMIKAKPSSPYTY | 235.9 BLU |
| HLVRKVAPTKPMYC | 477.5 BLU |
| KVLIKTLPVLPEAR | 236.7 BLU |
